This is an account of results in patent US20160082161A1, “DRUG-ELUTING MEDICAL DEVICES” (Ramot at Tel-Aviv University Ltd., priority 2008, published 2016).

Structures are written as SMILES.

The nature of this series: In vitro drug release from drug-eluting composite fibers in PBS. It counts as physicochemical. Particulars: PBS pH 7.4, 37° C.; PDLGA porous coat. Here is the method: The composite drug-eluting fibers were immersed in phosphate buffered saline (PBS) at 37° C. and pH 7.4 for 35 days (FTS) or 37 weeks (paclitaxel), in triplicates, in order to determine the release kinetics from the drug-loaded composite structures. Each test vial contained 2 fibers; each fiber was 5 cm long. The release studies were conducted in closed glass tubes containing 3 ml PBS medium, using a horizontal bath shaker operated at a constant rate of 130 rpm. The medium was removed completely at certain sampling time points, extracted from the aqueous medium as described herein and measured using HPLC. Fresh medium was then introduced. At the end of the experiment the fibers were immersed in methylene chloride and the residual amount of drug was measured.
The drug content of the medium samples was determined using Jasco High Performance Liquid Chromatography (HPLC) equipped with a UV 2075 plus detector and a quaternary gradient pump (PU 2089 plus). […] The paclitaxel content of the medium samples was determined using a reverse phase column (Zorbax ODS 5 μm, inner diameter 4.6 mm, length 150 mm), and kept at 25° C. […]
On the final day of the in vitro trial, residual FTS from composite drug-eluting fibers was measured as follows: the fibers were placed in 1 ml methylene chloride for 10 minutes and the coating shell was dissolved. […]

Consider `CC(C)=CCCC(C)=CCCC(C)=CCSc1ccccc1C(=O)O` (stereo in doubt) [FTS, 2-((2E,6E)-3,7,11-trimethyldodeca-2,6,10-trienylthio)benzoic acid], for which the “Drug release from porous coat structures (time scale)” value was “relatively fast FTS release within several weeks”.

As to `CC(=O)O[C@H]1C(=O)[C@@]2(C)[C@H]([C@H](OC(=O)c3ccccc3)[C@]3(O)C[C@H](OC(=O)[C@H](O)[C@@H](NC(=O)c4ccccc4)c4ccccc4)C(C)=C1C3(C)C)[C@]1(OC(C)=O)CO[C@@H]1C[C@@H]2O` [paclitaxel, Paclitaxel], the “Drug release from porous coat structures (time scale)” value is listed as “slower paclitaxel release within several months”.
